Measured values reported in patent US10039845B2, “Labeled inhibitors of prostate specific membrane antigen (PSMA) biological evaluation, and use of imaging agents” (THE JOHNS HOPKINS UNIVERSITY, priority 2007, dated 2018).

Columns and labels:
[1] = test system: PSMA+ PC3 PIP and PSMA− PC3 flu xenografts; details: mouse, in vivo
[2] = test system: PSMA+ PC3 PIP and PSMA− PC3 flu xenografts; details: for PIP (PSMA+) tumor uptake on SPECT-CT: SCID mice, 0.5-1 mCi i.v., imaged at 45 min p.i.; for uptake in normal organs (gallbladder, liver, kidneys) on SPECT-CT: mouse, in vivo, iv; for tumor contrast on late SPECT-CT images: several hours after injection (3.5-4 h uptake period)
PSMA = target: T1, PSMA (Homo sapiens, UniProt Q04609); assay: NAALADase assay (NAAG hydrolysis, LNCaP cell extracts); type: biochemical; details: for Ki: LNCaP cell extracts, Cheng-Prusoff conversion, read-out: Ki (PSMA inhibitory activity)
T1 construct: LNCaP cell extracts were prepared by sonication in NAALADase buffer; endogenous in cells; host or cells: LNCaP cell extract (sonicated in 50 mM Tris pH 7.4, 0.5% Triton X-100)
T1 sequence (Q04609 whole entry): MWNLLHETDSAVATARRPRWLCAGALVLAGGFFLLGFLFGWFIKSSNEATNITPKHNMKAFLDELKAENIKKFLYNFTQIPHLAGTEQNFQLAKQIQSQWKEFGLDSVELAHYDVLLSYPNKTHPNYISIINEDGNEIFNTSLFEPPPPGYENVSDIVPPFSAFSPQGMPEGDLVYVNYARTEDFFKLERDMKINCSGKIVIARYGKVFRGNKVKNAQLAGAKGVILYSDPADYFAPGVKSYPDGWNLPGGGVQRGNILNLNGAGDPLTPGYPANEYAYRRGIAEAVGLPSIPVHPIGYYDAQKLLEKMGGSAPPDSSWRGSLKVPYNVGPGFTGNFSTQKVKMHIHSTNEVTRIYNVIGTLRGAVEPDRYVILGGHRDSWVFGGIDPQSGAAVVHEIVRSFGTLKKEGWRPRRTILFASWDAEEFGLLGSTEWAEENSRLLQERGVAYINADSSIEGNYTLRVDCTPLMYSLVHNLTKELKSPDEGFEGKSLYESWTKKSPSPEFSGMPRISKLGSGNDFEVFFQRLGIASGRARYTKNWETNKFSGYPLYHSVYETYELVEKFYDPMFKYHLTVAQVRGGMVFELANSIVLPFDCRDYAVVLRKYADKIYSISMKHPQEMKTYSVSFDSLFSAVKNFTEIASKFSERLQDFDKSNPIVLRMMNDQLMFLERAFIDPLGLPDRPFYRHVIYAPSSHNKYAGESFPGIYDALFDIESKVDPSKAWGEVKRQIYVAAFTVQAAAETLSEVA
Method: The relative binding affinities of L1-L7 and ReL1-ReL7, were determined using the N-acetylated-α-linked acidic dipeptidase (NAALADase) assay as previously described.
NAAG hydrolysis was performed essentially as described previously (Robinson, M. B.; et al. J Biol Chem 1987, 262, 14498-14506; Lupold, S. E.; et al. Cancer Res 2002, 62, 4029-4033.). In short, LNCaP cell extracts were prepared by sonication in NAALADase buffer [50 mM Tris (pH 7.4) and 0.5% Triton X-100]. Cell lysates were incubated with or without inhibitor at 37° C. for 10 minutes. Following the incubation the radiolabeled substrate N-acetyl-L-aspartyl-L-(3,4-^3H)glutamate (NEN Life Science Products, Boston, Mass.) was added to a final concentration of 30 nM at 37° C. for 10-15 min. The reaction was stopped by the addition of an equal volume of ice-cold 100 mM sodium phosphate and 2 mM EDTA. Products were partitioned by AG 1-X8 formate resin (Bio-Rad Laboratories) anion exchange chromatography, eluted with 1 M sodium formate, and quantified by liquid scintillation counting. […] Assays were performed in triplicate with the entire inhibition study being repeated at least once to confirm affinity and mode of inhibition. Data were collected during linear phase of hydrolysis (i.e., <20% cleavage of total substrate). Enzyme inhibitory constants (Ki values) were generated using the Cheng-Prusoff conversion (Cheng, Y.; Prusoff, W. H. Biochem Pharmcol 1973, 22, 3099-3108).

[3] = Metabolite studies (HPLC of tissue extracts, plasma, urine); type: in vivo, mice
Method: Mice were sacrificed at either 30 min or 1 h postinjection by cervical dislocation and their blood and selected organs were removed. Blood samples were withdrawn using heparinized syringes and tissues were placed on ice prior to manual homogenization in PBS, pH 7.4. Plasma and tissue homogenates in PBS were centrifuged for 2 min at 13,000×g at ambient temperature. A portion of the supernatant was diluted to 4 mL in 8 M urea containing 50 mg citric acid. Urine samples were added directly to 4 mL of the acidified urea solution. Samples then underwent separation by HPLC as previously described (Hilton, J.; et al. Nucl Med Biol 2000, 27, 627-630). Briefly, the 4 mL sample in 8 M acidified urea was passed through a capture column (Strata-X, 19×4.4 mm, Phenomenex, Torrance, Calif.) at 2 mL/min followed by 1% acetonitrile in water to wash plasma proteins from the column. The effluent from the capture column, containing only highly polar components, flowed through a dual BGO detector (Bioscan, Washington, D.C.) operating in the […]. The solvent was then switched to 30% acetonitrile:50 mM phosphate buffer at pH 2.4 (2 mL/min) for elution of the radiolabeled components previously bound to the capture column onto the analytical column (Synergi Polar-RP 250×4.6 mm 10 micron particle size Phenomenex).

In the case of `O=C(O)CCC(NC(=O)NC(CCCCNC(=O)CCCCCCC(=O)NCCCCC(C(=O)O)N(Cc1ccccn1)Cc1ccccn1)C(=O)O)C(=O)O.[99Tc+].[C-]#[O+].[C-]#[O+].[C-]#[O+]` (centres unmarked) [[^99mTc]L3], the “PIP:flu uptake ratio, held steady” value [1] is reported as “around 5”, the “PIP (PSMA+) tumor uptake on SPECT-CT” value [2] is reported as “strong PIP tumor uptake” and the “uptake in normal organs (gallbladder, liver, kidneys) on SPECT-CT” value (from here on “uptake in normal organs”) [2] is reported as “gallbladder uptake and clear visualization of the kidneys”. For the same molecule, the “tumor contrast on late SPECT-CT images” value [2] was “higher contrast of tumor with respect to background”.

With `O=C(O)CCC(NC(=O)NC(CCCCNC(=O)CCCCCCC(=O)NCCCCCCN(CC(=O)[O][Re])Cc1ccccn1)C(=O)O)C(=O)O.[C-]#[O+].[C-]#[O+].[C-]#[O+]` (stereo not drawn) [ReL4, Tricarbonyl(2-[3-(1-carboxy-5-{7-[6-(carboxymethyl-pyridin-2-ylmethyl-amino)-hexylcarbamoyl]-heptanoylamino}-pentyl)-ureido]-pentanedioic acid) rhenium] the Ki (PSMA) was 0.17 nM and the “fold higher PSMA inhibitory potency than ReL7” value (PSMA; relative to ReL7) was “about 12 fold”.

For `O=C(O)CC[C@H](NC(=O)N[C@@H](CCCCNC(=O)CCCCCCC(=O)N[C@@H](CCCCN(Cc1ccccn1)Cc1ccccn1)C(=O)O)C(=O)O)C(=O)O.[99Tc+].[C-]#[O+].[C-]#[O+].[C-]#[O+]` [[^99mTc]L1], the “chromatographed radioactivity as the parent compound” value ([3]; all other tissue extracts, plasma and urine at 30 and 60 min postinjection) was 100%, the “extracted radioactivity as a polar metabolite” value ([3]; mouse kidney extracted 60 min after injection) was 2% and the “PIP (PSMA+) tumor uptake on SPECT-CT” value [2] was “strongly positive PIP tumor”. For the same molecule, the “uptake in normal organs” value [2] was “gallbladder uptake and clear visualization of the kidneys” and the “tumor contrast on late SPECT-CT images” value [2] was “higher contrast of tumor with respect to background”.

In the case of `O=C(O)CC[C@H](NC(=O)N[C@@H](CCCCN(Cc1ccccn1)Cc1ccccn1)C(=O)O)C(=O)O.[99Tc+].[C-]#[O+].[C-]#[O+].[C-]#[O+]` [[^99mTc]L6], the “PIP (PSMA+) tumor uptake on SPECT-CT” value [2] is reported as “no PIP tumor-specific uptake”.

With `O=C(O)CCC(NC(=O)NC(CCCCNC(=O)CCCCCCC(=O)NC(CCCCNC(=O)CN1CCN(CC(=O)O)CCN(CC(=O)O)CCN(CC(=O)O)CC1)C(=O)O)C(=O)O)C(=O)O` (centres unmarked) [DOTA-L1, 2-{3-[1-Carboxy-5-(7-{1-carboxy-5-[2-(4,7,10-tris-carboxymethyl-1,4,7,10tetraaza-cyclododec-1-yl)-acetylamino]-pentylcarbamoyl}-heptanoylamino)-pentyl]-ureido}-pentanedioic acid] the IC50 (PSMA) was 0.8 nM.

Molecule `O=C(O)CCC(NC(=O)NC(CCCCNC(=O)CCCCCCC(=O)NCCCCC(C(=O)O)N(Cc1ccccn1)Cc1ccccn1)C(=O)O)C(=O)O.[Br-].[C-]#[O+].[C-]#[O+].[C-]#[O+].[Re+]` (stereo not drawn) [ReL3, Tricarbonyl(2-[3-(5-{7-[5-(bis-pyridin-2-ylmethyl-amino)-5-carboxy-pentylcarbamoyl]-heptanoylamino}-1-carboxy-pentyl)-ureido]-pentanedioic acid)rehenium bromide] has a Ki (PSMA) of 10.3 nM.

For `O=C(O)CCC(NC(=O)NC(CCCCNC(=O)CCCCCCC(=O)NCCCCCCN(Cc1ccccn1)Cc1ccccn1)C(=O)O)C(=O)O.[Br-].[C-]#[O+].[C-]#[O+].[C-]#[O+].[Re+]` (stereo not drawn) [ReL7, Tricarbonyl(2-[3-(5-{7-[6-(Bis-pyridin-2-ylmethyl-amino)-hexylcarbamoyl]-heptanoylamino}-1-carboxy-pentyl)-ureido]-pentanedioic acid)rhenium bromide], the Ki (PSMA) was 2.06 nM.

`O=C(O)CCC(NC(=O)NC(CCCCNC(=O)CCCCCCC(=O)NCCCCCCN(CC(=O)O)Cc1ccccn1)C(=O)O)C(=O)O` (centres unmarked) [Compound L4, 2-[3-(1-Carboxy-5-{7-[6-(carboxymethyl-pyridin-2-ylmethyl-amino)-hexylcarbamoyl]-heptanoylamino}-pentyl)-ureido]-pentanedioic acid] gave a Ki (PSMA) of 2.54 nM.

“Tricarbonyl (2-[3-(5-{7-[5-(bis-pyridin-2-ylmethyl-amino)-1-carboxy-pentylcarbamoyl]-heptanoylamino}-1-carboxy-pentyl)-ureido]-pentanedioic acid) rhenium bromide [ReL1]” gave a Ki (PSMA) of 10.8 nM.

In the case of `O=C(O)CC[C@H](NC(=O)N[C@@H](CCCCNC(=O)CCCCCCCN(Cc1ccccn1)Cc1ccccn1)C(=O)O)C(=O)O.[99Tc+].[C-]#[O+].[C-]#[O+].[C-]#[O+]` [[^99mTc]L5], the “PIP (PSMA+) tumor uptake on SPECT-CT” value [2] is reported as “qualitatively similar to [^99mTc]L4”.

In the case of `O=C(O)CCC(NC(=O)NC(CCCCNC(=O)CCCCCCC(=O)NCCCCCCN(Cc1ccccn1)Cc1ccccn1)C(=O)O)C(=O)O` (centres unmarked) [Compound L7, 2-[3-(5-{7-[6-(Bis-pyridin-2-ylmethyl-amino)-hexylcarbamoyl]-heptanoylamino}-1-carboxy-pentyl)-ureido]-pentanedioic acid], the Ki (PSMA) is reported as 0.45 nM.

`O=C(O)CCC(NC(=O)NC(CCCCNC(=O)CCCCCCCN(Cc1ccccn1)Cc1ccccn1)C(=O)O)C(=O)O.[Br-].[C-]#[O+].[C-]#[O+].[C-]#[O+].[Re+]` (stereo not drawn) [ReL5, Tricarbonyl(2-(3-{5-[8-(bis-pyridin-2-ylmethyl-amino)-octanoylamino]-1-carboxy-pentyl}-ureido)-pentanedioic acid)rhenium bromide] showed a Ki (PSMA) of 0.91 nM.

In the case of `O=C(O)CCC(NC(=O)NC(CCCCN(Cc1ccccn1)Cc1ccccn1)C(=O)O)C(=O)O` (centres unmarked) [Compound L6, 2-{3-[5-(Bis-pyridin-2-ylmethyl-amino)-1-carboxy-pentyl]-ureido}-pentanedioic acid], the Ki (PSMA) is reported as 7.53 nM.

`O=C(O)CCC(NC(=O)NC(CCCCNC(=O)CCCCCCCN(Cc1ccccn1)Cc1ccccn1)C(=O)O)C(=O)O` (centres unmarked) [Compound L5, 2-(3-{5-[8-(Bis-pyridin-2-ylmethyl-amino)-octanoylamino]-1-carboxy-pentyl}-ureido)-pentanedioic acid] gave a Ki (PSMA) of 1.86 nM.

For `O=C(O)CC[C@H](NC(=O)N[C@@H](CCCCNC(=O)CCCCCCC(=O)N[C@@H](CCCCN(Cc1ccc2ccccc2n1)Cc1ccc2ccccc2n1)C(=O)O)C(=O)O)C(=O)O.[99Tc+].[C-]#[O+].[C-]#[O+].[C-]#[O+]` [[^99mTc]L2], the “PIP (PSMA+) tumor uptake on SPECT-CT” value [2] was “weak PIP tumor uptake” and the “uptake in normal organs” value [2] was “strong gallbladder uptake and kidney uptake”.

Work on `O=C(O)CCC(NC(=O)NC(CCCCN(Cc1ccccn1)Cc1ccccn1)C(=O)O)C(=O)O.[Br-].[C-]#[O+].[C-]#[O+].[C-]#[O+].[Re+]` (stereo not drawn) [ReL6, Tricarbonyl(2-{3-[5-(bis-pyridin-2-ylmethyl-amino)-1-carboxy-pentyl]-ureido}-pentanedioic acid)rhenium bromide] yielded a Ki (PSMA) of 200 nM.

With `O=C(O)CCC(NC(=O)NC(CCCCNC(=O)CCCCCCC(=O)NCCCCC(C(=O)O)N(Cc1ccccn1)Cc1ccccn1)C(=O)O)C(=O)O` (centres unmarked) [Compound L3, 2-[3-(5-{7-[5-(Bis-pyridin-2-ylmethyl-amino)-5-carboxy-pentylcarbamoyl]-heptanoylamino}-1-carboxy-pentyl)-ureido]-pentanedioic acid] the Ki (PSMA) was 1.08 nM.
